Paper PMC7251097, “Aspartate/asparagine-β-hydroxylase: a high-throughput mass spectrometric assay for discovery of small molecule inhibitors” (Scientific Reports, 2020)
Counter-ions that a name gives are not always drawn. Like-named read-outs stand apart in the source and are kept apart here.

Biological target: T1, His6-AspH315–758 (human aspartate/asparagine-β-hydroxylase, AspH) (Homo sapiens, UniProt Q12797)
T1 construct: N-Terminally His6-tagged human AspH315–758 (His6-AspH315–758) was produced in E. coli BL21 (DE3) cells; made in house; host or cells: E. coli BL21 (DE3), pET-28a(+) vector
T1 sequence (Q12797 315-758): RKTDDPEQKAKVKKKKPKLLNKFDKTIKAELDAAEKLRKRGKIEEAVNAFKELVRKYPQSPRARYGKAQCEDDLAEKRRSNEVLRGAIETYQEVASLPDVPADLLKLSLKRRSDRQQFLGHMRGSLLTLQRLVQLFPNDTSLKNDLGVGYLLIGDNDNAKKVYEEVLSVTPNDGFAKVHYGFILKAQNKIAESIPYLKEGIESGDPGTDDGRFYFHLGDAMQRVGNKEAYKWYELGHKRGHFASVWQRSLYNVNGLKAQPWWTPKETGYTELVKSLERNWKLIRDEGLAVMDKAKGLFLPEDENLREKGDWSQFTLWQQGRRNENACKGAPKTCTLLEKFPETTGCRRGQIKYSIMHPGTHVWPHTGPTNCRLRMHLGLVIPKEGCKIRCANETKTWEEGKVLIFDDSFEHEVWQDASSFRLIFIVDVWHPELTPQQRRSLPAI
Assay: SPE-MS AspH inhibition assay (LOPAC screen at fixed 20 μM and IC50 dose-response), hydroxylation of cyclic peptide hFX-CP101–119
Format: biochemical
Conditions: for Plate 5 (% inhibition) / Plate 5 (% conversion): plate 5 (Pfitzer), test compounds at fixed 20 μM; for Plate 5 (% conversion): mean conversion DMSO 32.88

[1] = LOPAC Plate 4, compound at 20 uM, substrate conversion
[2] = LOPAC Plate 4, compound at 20 uM, read-out: % inhibition
[3] = LOPAC compound at fixed 20 uM, plate 1, normalised to DMSO and 2,4-PDCA controls
[4] = LOPAC compound at fixed 20 uM, substrate conversion, plate 1
[5] = LOPAC compound at 20uM, plate 2, conversion of substrate peptide
[6] = LOPAC compound at 20uM, plate 2, normalised to DMSO and 2,4-PDCA controls
[7] = LOPAC compound at 20uM, conversion of substrate peptide
[8] = LOPAC Plate 4, compound at 20 uM

COc1ccccc1OCC(O)CN1CCN(CC(=O)Nc2c(C)cccc2C)CC1 (centres unmarked) [Ranolazine dihydrochloride]
% conversion [1]: 41.52%
inhibition at 20 µM [2]: -14.8%

Nc1c(S(=O)(=O)O)cc(Nc2ccc(Nc3nc(Cl)nc(Nc4cccc(S(=O)(=O)O)c4)n3)c(S(=O)(=O)O)c2)c2c1C(=O)c1ccccc1C2=O [Reactive Blue 2, reference compound]
% conversion: 3.94%
inhibition at 20 µM: 95.3%
inhibition at 20 µM (read-out: Inhibition at 20 µM [%]): 95.3%

Cc1cccc(-c2[nH]ncc2-c2ccc3ncccc3n2)n1 [RepSox]
Plate 2 (% conversion): 40.48%
Plate 2 (% inhibition) (20 µM): -13.51%

COC(=O)[C@H]1[C@H]2C[C@@H]3c4[nH]c5cc(OC)ccc5c4CCN3C[C@H]2C[C@@H](OC(=O)c2cc(OC)c(OC)c(OC)c2)[C@@H]1OC [Reserpine]
Plate 1 (% inhibition) [3]: -13.78%
Plate 1 (% conversion) [4]: 40.50%

Oc1ccc(/C=C/c2cc(O)cc(O)c2)cc1 [Resveratrol]
% conversion [1]: 34.33%

CC1=C(/C=C/C(C)=C/C=C/C(C)=C/C(=O)Nc2ccc(O)cc2)C(C)(C)CCC1 [Retinoic acid p-hydroxyanilide]
Plate 2 (% conversion) [5]: 25.03%
Plate 2 (% inhibition) [6]: 32.63%

CC1=C(/C=C/C(C)=C/C=C/C(C)=C/C(=O)O)C(C)(C)CCC1 [Retinoic acid]
% conversion [1]: 30.58%
inhibition at 20 µM [2]: 17.2%

NC(=O)c1ncn([C@@H]2O[C@H](CO)[C@@H](O)[C@H]2O)n1 [Ribavirin]
% conversion [1]: 38.92%
inhibition at 20 µM [2]: -7.18%

C1COC(NC(C2CC2)C2CC2)=N1 [Rilmenidine hemifumarate]
% conversion [1]: 24.79%

Nc1nc2ccc(OC(F)(F)F)cc2s1 [Riluzole]
% conversion [1]: 38.21%
inhibition at 20 µM [2]: -5.09%

Cc1nc2sccn2c(=O)c1CCN1CCC(=C(c2ccc(F)cc2)c2ccc(F)cc2)CC1 [Ritanserin]
% conversion [1]: 37.56%

CC(NCCc1ccc(O)cc1)C(O)c1ccc(O)cc1 (centres unmarked) [Ritodrine hydrochloride]
% conversion [1]: 37.24%
inhibition at 20 µM [2]: -2.24%

CN(C)CCc1c[nH]c2ccc(Cn3cncn3)cc12.O=C(O)c1ccccc1 [Rizatriptan benzoate salt]
Plate 3 (% conversion) [7]: 37.82%

CNc1cc(NS(=O)(=O)c2ccc(N)cc2)nc(NC)n1.Cl.Cl [Ro 04-6790 dihydrochloride]
% inhibition [8]: 35.85%
% conversion [1]: 24.24%

O=C(c1cc(O)c(O)c([N+](=O)[O-])c1)c1ccccc1F [Ro 41-0960, reference compound]
% inhibition [8]: 97.80%
% conversion [1]: 3.09%

COc1ccc(C2CNC(=O)C2)cc1OC1CCCC1 (centres unmarked) [Rolipram]
% conversion [1]: 37.72%
inhibition at 20 µM [2]: -3.65%

CCCN(CCC)CCc1cccc2c1CC(=O)N2 [Ropinirole hydrochloride]
% conversion: 31.94%

CC[C@H](CO)Nc1nc(NCc2ccccc2)c2ncn(C(C)C)c2n1 [Roscovitine]
Plate 1 (% conversion): 40.73%
Plate 1 (% inhibition): -14.45%

C=C(C)[C@H]1Cc2c(ccc3c2O[C@@H]2COc4cc(OC)c(OC)cc4[C@@H]2C3=O)O1 [Rotenone]
% conversion: 46.53%

CC(=O)c1c(O)c(C)c(O)c(Cc2c(O)c3c(c(C(=O)/C=C/c4ccccc4)c2O)OC(C)(C)C=C3)c1O [Rottlerin]
% conversion: 14.64%
inhibition at 20 µM: 64%

O=c1c2ccccc2nc2n1CCc1c-2[nH]c2ccccc12 [Rutaecarpine]
% conversion [1]: 29.23%

N.N.N.N.N.N.N.N.N.N.N.N.N.N.[Cl-].[Cl-].[Cl-].[Cl-].[Cl-].[Cl-].[O-2].[O-2].[Ru+3].[Ru+3].[Ru+4] [Ruthenium red]
% inhibition [8]: -14.56%
% conversion [1]: 41.44%

CC(C)Cc1ccc([C@H](C)C(=O)O)cc1 [S(+)-Ibuprofen]
Plate 3 (% conversion) [7]: 38.99%

CC(C)NC[C@H](O)COc1ccc(CC(N)=O)cc1 [S(-)-Atenolol]
Plate 1 (% inhibition) [3]: -5.71%
Plate 1 (% conversion) [4]: 37.79%

CC(C)(C)NC[C@H](O)COc1nsnc1N1CCOCC1.O=C(O)/C=C\C(=O)O [S(-)-Timolol maleate]
% conversion [1]: 29.54%

Brc1ccc([C@H]2CN3CCSC3=N2)cc1.O=C(O)C(=O)O [S(-)-p-Bromotetramisole oxalate]
Plate 1 (% inhibition) [3]: 75.43%
Plate 1 (% conversion) [4]: 10.54%

O=[N+]([O-])c1ccc(CSc2ncnc3c2ncn3[C@@H]2O[C@H](CO)[C@@H](O)[C@H]2O)cc1 [S-(4-Nitrobenzyl)-6-thioinosine]
Plate 3 (% conversion) [7]: 36.51%

CNCC[C@H](Oc1ccc(C(F)(F)F)cc1)c1ccccc1.Cl [S-(+)-Fluoxetine hydrochloride]
Plate 2 (% conversion): 45.11%
Plate 2 (% inhibition) (20 µM): -27.34%

C[C@@](Cc1ccc(O)c(O)c1)(NN)C(=O)O [S-(-)-Carbidopa]
Plate 2 (% conversion) [5]: 7.52%
Plate 2 (% inhibition) [6]: 84.92%

[N-]=[N+]=Nc1ccc(C(=O)CSC[C@H](NC(=O)CC[C@H](N)C(=O)O)C(=O)NCC(=O)O)cc1 [S-(p-Azidophenacyl)glutathione]
Plate 1 (% inhibition) [3]: -2.24%
Plate 1 (% conversion) [4]: 36.62%

CSC(=N)N.CSC(=N)N.O=S(=O)(O)O [S-Methylisothiourea hemisulfate]
Plate 3 (% conversion) [7]: 35.95%

N[C@@H](CCC(=O)N[C@@H](CSN=O)C(=O)NCC(=O)O)C(=O)O [S-Nitrosoglutathione]
Plate 3 (% conversion) [7]: 32.88%

Cc1nn(-c2ccccc2)c(C)c1/C=N/N1CCN(Cc2ccccc2)CC1 [SANT-1]
Plate 2 (% conversion) [5]: 42.39%
Plate 2 (% inhibition) [6]: -19.21%

Cl.Cn1ccc2cc(NC(=O)Nc3cccnc3)ccc21 [SB 200646 hydrochloride]
Plate 1 (% inhibition) [3]: -6.42%
Plate 1 (% conversion) [4]: 38.03%

Oc1ccc(-c2nc(-c3ccncc3)c(-c3ccc(F)cc3)[nH]2)cc1 [SB 202190]
Plate 1 (% inhibition) [3]: -5.28%
Plate 1 (% conversion) [4]: 37.64%

Cc1cc(NC(=O)Nc2ccc3c(ccn3C)c2)sn1 [SB 204741]
Plate 1 (% conversion): 37.70%
Plate 1 (% inhibition): -5.45%

CC#CCOC(=O)c1c(C)nc2sc3c(c2c1N)CCC(O)C3 (centres unmarked) [SB 205384]
% conversion: 39.48%

Cn1ccc2cc3c(cc21)CCN3C(=O)Nc1cccnc1 [SB 206553 hydrochloride]
% conversion: 28.82%

CC[C@H](NC(=O)c1c(C)c(-c2ccccc2)nc2ccccc12)c1ccccc1 [SB 222200]
Plate 1 (% inhibition) [3]: -26.34%
Plate 1 (% conversion) [4]: 44.72%

Cc1cc2c(cc1Cl)N(C(=O)Nc1ccc(Oc3cccnc3C)nc1)CC2.Cl.Cl.O [SB 242084 dihydrochloride hydrate]
Plate 3 (% conversion) [7]: 37.92%

CC1CCN(CC[C@H]2CCCN2S(=O)(=O)c2cccc(O)c2)CC1.Cl [SB 269970 hydrochloride]
% inhibition [8]: -11.63%
% conversion [1]: 40.44%

Cc1cc2c(cc1Cl)N(C(=O)Nc1cccc3ncccc13)CC2 [SB-215505]
Plate 3 (% conversion) [7]: 42.68%

COc1cccc(NC(=O)/C=C/c2ccc(Cl)cc2)c1 [SB-366791]
% inhibition [8]: 0.24%
% conversion [1]: 36.39%

CC(=O)NNC(=O)N1Cc2ccccc2Oc2ccc(Cl)cc21 [SC 19220]
% conversion [1]: 29.06%

NS(=O)(=O)c1ccc(-n2nc(C(F)(F)F)cc2-c2ccc(Cl)cc2)cc1 [SC-236]
Plate 3 (% conversion) [7]: 40.00%
Plate 5 (% inhibition): -23.50%
Plate 5 (% conversion): 44.31%

N#CC(CCCN1CCN(/N=C/c2cccnc2)CC1)(c1ccccc1)c1ccccc1 [SC-26196]
Plate 5 (% inhibition): 23.44%
Plate 5 (% conversion): 28.34%
